How the values were obtained:
[1] = target: T1, PGI2 receptor (Homo sapiens, UniProt P43119); test: Inhibitory activity on binding of ^3 H-iloprost to PGI2 receptor on human blood platelet membrane fraction; conditions: 10 nM [^3H]-iloprost, human blood platelet membrane fraction (0.3 mg protein), 24° C., 30 min, pH 7.4
T1 construct: human blood platelet membrane fraction (0.3 mg protein) was added; from tissue; host or cells: human blood platelets (membrane fraction)
Method: i) Inhibitory activity on binding of ^3 H-iloprost to PGI2 receptor on human blood platelet membrane fraction Method 50 mM Tris-HCl buffer (pH 7.4) containing 15 mM MgCl2, 5 mM EDTA and 10 nM [^3 H]-iloprost were used as reaction medium. To 0.2 ml of the reaction medium, human blood platelet membrane fraction (0.3 mg protein) was added with or without a test compound. The mixture was incubated at 24° C. for 30 min. After incubation, 4 ml of ice-cold 10 mM Tris-HCl buffer (pH 7.4) was added to the reaction mixture, and filtered through Whatman GF/B glass fiber filter, and washed 4 times with 4 ml of ice-cold 10 mM Tris-HCl buffer (pH 7.4) to separate bound and free [^3 H]-iloprost. After washing, the filter was dried and radioactivity was counted. Non-specific binding was obtained by performing parallel binding experiments in the presence of 10 μM non-labelled iloprost. Specific binding was calculated by subtracting the non-specific binding from the total binding. The inhibitory effect of test compound was calculated from the following equation. The percentage of inhibition (%)=100-(B1 /B0 ×100) B1 : specific [^3 H]-iloprost binding in presence of test compound B0 : specific [^3 H]-iloprost binding in absence of test compound

[2] = test system: human blood platelet aggregation; test: Inhibitory effect on human blood platelet aggregation (ADP-induced, platelet-rich plasma); assay type: cell-based; conditions: human PRP (5×10^5 platelets/mm^3), test compound 1 min prior to ADP (4 μm)
Method: ii) Inhibitory effect on human blood platelet aggregation
Platelet-rich plasma (PRP) was prepared from human blood (5×10^5 platelets/mm^3), and a test compound was added to PRP 1 min prior to the addition of ADP (4 μm). The aggregation was monitored using a platelet aggregometer (NBS HEMA TRACER 601, Niko Bioscience, Japan).

T1 sequence (P43119 whole entry): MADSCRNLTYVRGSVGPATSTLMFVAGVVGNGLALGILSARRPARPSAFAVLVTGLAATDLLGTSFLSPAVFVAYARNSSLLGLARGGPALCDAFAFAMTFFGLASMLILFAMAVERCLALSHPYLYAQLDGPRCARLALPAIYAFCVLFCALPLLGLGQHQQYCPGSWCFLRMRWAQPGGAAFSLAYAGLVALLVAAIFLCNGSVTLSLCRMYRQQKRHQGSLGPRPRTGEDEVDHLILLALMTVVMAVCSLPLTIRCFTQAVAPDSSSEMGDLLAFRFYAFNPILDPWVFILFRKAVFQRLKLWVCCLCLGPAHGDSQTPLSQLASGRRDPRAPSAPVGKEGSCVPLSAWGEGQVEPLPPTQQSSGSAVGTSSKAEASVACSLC

| Structure (SMILES) | IC50 [1] [nM] | IC50 [2] [µM] |
| --- | --- | --- |
| O=C(O)COc1cccc2c1CCC(Cn1cnc(-c3ccccc3)c1-c1ccccc1)C2 (centres unmarked) [2(a), [2-(4,5-Diphenylimidazol-1-yl)methyl-1,2,3,4-tetrahydronaphthalen-5-yloxy]acetic acid] | 2300 | 13 |
| O=C(O)COc1cccc2c1CCCC2CCn1c(-c2ccccc2)c(-c2ccccc2)n(-c2ccccc2)c1=O (centres unmarked) [6(b), [1-(2-(1,4,5-Triphenyl-2-oxo-2,3-dihydroimidazol-3-yl)ethyl)-1,2,3,4-tetrahydronaphthalen-5-yloxy] acetic acid] | 4000 | 16 |
| O=C(O)COc1cccc2c1CCC(Cn1cc(C(c3ccccc3)c3ccccc3)cn1)=C2 [Example 22, [2-(4-(Diphenylmethyl)pyrazol-1-yl)methyl-3,4-dihydronaphthalen-5-yloxy] acetic acid] | 18 | 0.093 |
| O=C(O)COc1cccc2c1CCC(Cn1c(-c3ccccc3)c(-c3ccccc3)n(-c3ccccc3)c1=O)C2 (centres unmarked) [2(e), [2-(3,4,5-Triphenyl-2-oxo-2,3-dihydroimidazol-1-yl)methyl-1,2,3,4-tetrahydronaphthalen-5-yloxy] acetic acid] | 2600 | 15 |
| O=C(O)COc1cccc2c1CCC(CCn1cc(C(c3ccccc3)c3ccccc3)cn1)C2 (centres unmarked) [4(f), [2-(2-(4-Diphenylmethylpyrazol-1-yl)ethyl)-1,2,3,4-tetrahydronaphthalen-5-yloxy] acetic acid] | 1400 | – |
| O=C(O)COc1cccc2c1CCCC2CCn1cnc(-c2ccccc2)c1-c1ccccc1 (centres unmarked) [Example 6, [1-[2-(4,5-Diphenylimidazol-1-yl)ethyl]-1,2,3,4-tetrahydronaphthalen-5-yloxy] acetic acid] | 5000 | – |
| O=C(O)COc1cccc2c1CCC(COc1nc(-c3ccccc3)c(-c3ccccc3)n1-c1ccccc1)C2 (centres unmarked) [2(d), [2-(1,4,5-Triphenylimidazol-2-yloxy)methyl-1,2,3,4-tetrahydronaphthalen-5-yloxy] acetic acid] | 6800 | 20 |
| O=C(O)COc1cccc2c1CCC(Cn1cc(C(c3ccccc3)n3ccnc3)cn1)C2 (centres unmarked) [Example 24, [2-(4-((1-Imidazolyl)phenylmethyl)pyrazol-1-yl)methyl-1,2,3,4-tetrahydronaphthalen-5-yloxy] acetic acid] | 8000 | – |
| CCc1oc(C(c2ccccc2)c2ccccc2)nc1CC1CCc2c(cccc2OCC(=O)O)C1 (centres unmarked) [Example 14, [2-(2-Diphenylmethyl-5-ethyloxazol-4-yl)methyl-1,2,3,4-tetrahydronaphthalen-5-yloxy] acetic acid] | 940 | 1.6 |
| O=C(O)COc1cccc2c1CCC(Cc1nc(C(c3ccccc3)c3ccccc3)co1)C2 (centres unmarked) [Example 10, [2-(4-Diphenylmethyloxazol-2-yl)methyl-1,2,3,4-tetrahydronaphthalen-5-yloxy] acetic acid] | 1800 | 5.1 |
| O=C(O)COc1cccc2c1CCCC2CCn1cc(C(c2ccccc2)c2ccccc2)cn1 (centres unmarked) [6(c), [1-(2-(4-Diphenylmethylpyrazol-1-yl)ethyl)-1,2,3,4-tetrahydronaphthalen-5-yloxy] acetic acid] | 58 | – |
| O=C(O)COc1cccc2c1CCC(Cn1cc(C(c3ccccc3)c3ccccc3)cn1)C2 (centres unmarked) [Example 2, [2-(4-Diphenylmethylpyrazol-1-yl)methyl-1,2,3,4-tetrahydronaphthalen-5-yloxy]acetic acid] | 43 | 0.045 |
| O=C(O)COc1cccc2c1CCC(CCOc1nc(-c3ccccc3)c(-c3ccccc3)n1-c1ccccc1)C2 (centres unmarked) [4(c), [2-(2-(1,4,5-Triphenylimidazol-2-yloxy)ethyl)-1,2,3,4-tetrahydronaphthalen-5-yloxy] acetic acid] | 8200 | – |

Continued by falling IC50 [1], values first:

| IC50 [1] [nM] | IC50 [2] [µM] | Structure (SMILES) |
| --- | --- | --- |
| 6800 | 12 | O=C(O)COc1cccc2c1CCC(Cc1c[nH]c(C(c3ccccc3)c3ccccc3)n1)C2 (centres unmarked) [Example 16, [2-(2-Diphenylmethylimidazol-4-yl)methyl-1,2,3,4-tetrahydronaphthalen-5-yloxy] acetic acid] |
| 5000 | 11 | O=C(O)COc1cccc2c1CCC(CCSc1nc(-c3ccccc3)c(-c3ccccc3)[nH]1)C2 (centres unmarked) [4(b), [2-(2-(4,5-Diphenylimidazol-2-ylthio)ethyl)-1,2,3,4-tetrahydronaphthalen-5-yloxy] acetic acid] |
| 3900 | 12 | O=C(O)COc1cccc2c1CCC(CSc1nc(-c3ccccc3)c(-c3ccccc3)[nH]1)C2 (centres unmarked) [2(c), [2-(4,5-Diphenylimidazol-2-ylthio)methyl-1,2,3,4-tetrahydronaphthalen-5-yloxy] acetic acid] |
| 2000 | – | O=C(O)COc1cccc2c1CCCC2CCc1nc(C(c2ccccc2)c2ccccc2)no1 (centres unmarked) [Example 8, [1-[2-(3-Diphenylmethyl-1,2,4-oxadiazol-5-yl)ethyl]-1,2,3,4-tetrahydronaphthalen-5-yloxy] acetic acid] |
| 360 | – | O=C(O)COc1cccc2c1CCC(Cn1ccc(C(c3ccccc3)c3ccccc3)n1)C2 (centres unmarked) [2(h), [2-(3-Diphenylmethylpyrazol-1-yl)methyl-1,2,3,4-tetrahydronaphthalen-5-yloxy] acetic acid] |
| 350 | 0.3 | O=C(O)COc1cccc2c1CCC(Cn1cnc(C(c3ccccc3)c3ccccc3)c1)C2 (centres unmarked) [2(g), [2-(4-Diphenylmethylimidazol-1-yl)methyl-1,2,3,4-tetrahydronaphthalen-5-yloxy] acetic acid] |
| 320 | 1 | O=C(O)COc1cccc2c1CCC(Cc1coc(C(c3ccccc3)c3ccccc3)n1)C2 (centres unmarked) [Example 12, [2-(2-Diphenylmethyloxazol-4-yl)methyl-1,2,3,4-tetrahydronaphthalen-5-yloxy] acetic acid] |
| 260 | 1 | O=C(O)COc1cccc2c1CCC(Cc1nc(C(c3ccccc3)c3ccccc3)no1)C2 (centres unmarked) [8(a), [2-(3-Diphenylmethyl-1,2,4-oxadiazol-5-yl)methyl-1,2,3,4-tetrahydronaphthalen-5-yloxy] acetic acid] |
| 210 | 0.15 | O=C(O)COc1cccc2c1CCC(Cn1cc(C(c3ccccc3)c3cccnc3)cn1)C2 (centres unmarked) [2(i), [2-(4-((3-pyridyl)phenylmethyl)pyrazol-1-yl)methyl-1,2,3,4-tetrahydronaphthalen-5-yloxy] acetic acid] |
| 160 | – | O=C(O)COc1cccc2c1CCC(Cn1cc(C(c3ccccc3)c3cccnc3)cn1)=C2 (centres unmarked) [22(a), [2-(4-((3-Pyridyl)phenylmethyl)pyrazol-1-yl)methyl-3,4-dihydronaphthalen-5-yloxy] acetic acid] |
